Test results published in patent publication US8030498B2, “Benzoylpyrazole compounds and herbicides containing them” (Ishihara Sangyo Kaisha, Ltd., priority 2005, dated 2011).

Key:
wheat (Triticum spp.) = test: Test Example 1: foliar treatment, growth inhibition rate, wheat; assay type: in vivo; conditions: 31 g/ha active ingredient, visually observed 17th to 23rd day after application
Method in brief: (§1)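 Seeds were sown in upland field soil in pots. At the target leaf stage (corn 2.0–3.5; greenfoxtail 1.0–3.0; rice 1.0–2.5; wheat 1.7–3.4), the formulated compound, diluted at a water volume of 500 L/ha with 0.1 vol % spreader, was applied by small sprayer. Plants were rated by eye on days 17–23.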

prickly sida = test: Test Example 2: soil application on the day after sowing, growth inhibition rate, prickly sida; assay type: in vivo, Sida spinosa L.; conditions: 250 g/ha active ingredient, observed on 19th to 24th day
Method in brief: (§2)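 Pre-emergence soil treatment: one day post-sowing in upland soil, compound formulations at set active-ingredient rates were applied in 500 L/ha water. Visual rating of growth inhibition (0% untreated-equivalent to 100% complete kill) followed on days 19–24 after application.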

wheat = test: Test Example 2: soil application on the day after sowing, growth inhibition rate, wheat; assay type: in vivo, Triticum spp.; conditions: 250 g/ha active ingredient, observed on 19th to 24th day
Method in brief: as §2

[1] = tested on: velvetleaf (Abutilon theophrasti MEDIC.); test: Test Example 1: foliar treatment, growth inhibition rate, velvetleaf; assay type: in vivo; conditions: 31 g/ha active ingredient, visually observed 17th to 23rd day after application
Method in brief: (§3)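 Potted upland soil; compounds as wettable powders or emulsifiable concentrates diluted in water at 500 L/ha plus 0.1 vol % spreader, foliar-sprayed at defined leaf stages (rice 1.0–2.5, wheat 1.7–3.4, corn 2.0–3.5, greenfoxtail 1.0–3.0). Growth inhibition (0–100%) scored visually 17–23 days after application.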

crabgrass = test: Test Example 2: soil application on the day after sowing, growth inhibition rate, crabgrass; assay type: in vivo, Digitaria sanguinalis L.; conditions: 250 g/ha active ingredient, observed on 19th to 24th day
Method in brief: as §2

[2] = tested on: redroot pigweed (Amaranthus retroflexus L.); test: Test Example 1: foliar treatment, growth inhibition rate, redroot pigweed; assay type: in vivo; conditions: 31 g/ha active ingredient, visually observed 17th to 23rd day after application
Method in brief: (§4)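 Visual scoring of growth inhibition, 0% (untreated) to 100% (complete kill), on days 17–23 following post-emergence spray of formulated compound in water (500 L/ha, 0.1 vol % spreader); plants treated at set leaf stages, e.g. corn 2.0–3.5, wheat 1.7–3.4.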

greenfoxtail = test: Test Example 2: soil application on the day after sowing, growth inhibition rate, greenfoxtail; assay type: in vivo, Setaria viridis L.; conditions: 250 g/ha active ingredient, observed on 19th to 24th day
Method in brief: as §2

[3] = tested on: prickly sida (Sida spinosa L.); test: Test Example 1: foliar treatment, growth inhibition rate, prickly sida; assay type: in vivo; conditions: 31 g/ha active ingredient, visually observed 17th to 23rd day after application
Method in brief: as §4

redroot pigweed = test: Test Example 2: soil application on the day after sowing, growth inhibition rate, redroot pigweed; assay type: in vivo, Amaranthus retroflexus L.; conditions: 250 g/ha active ingredient, observed on 19th to 24th day
Method in brief: as §2

corn = test: Test Example 2: soil application on the day after sowing, growth inhibition rate, corn; assay type: in vivo, Zea mays L.; conditions: 250 g/ha active ingredient, observed on 19th to 24th day
Method in brief: as §2

velvetleaf = test: Test Example 2: soil application on the day after sowing, growth inhibition rate, velvetleaf; assay type: in vivo, Abutilon theophrasti MEDIC.; conditions: 250 g/ha active ingredient, observed on 19th to 24th day
Method in brief: as §2

barnyardgrass = test: Test Example 2: soil application on the day after sowing, growth inhibition rate, barnyardgrass; assay type: in vivo, Echinochloa crus-galli L.; conditions: 250 g/ha active ingredient, observed on 19th to 24th day
Method in brief: as §2

[4] = tested on: crabgrass (Digitaria sanguinalis L.); test: Test Example 1: foliar treatment, growth inhibition rate, crabgrass; assay type: in vivo; conditions: 31 g/ha active ingredient, visually observed 17th to 23rd day after application
Method in brief: as §4

rice (Oryza sativa L.) = test: Test Example 1: foliar treatment, growth inhibition rate, rice; assay type: in vivo; conditions: 31 g/ha active ingredient, visually observed 17th to 23rd day after application
Method in brief: as §1

soybean = test: Test Example 2: soil application on the day after sowing, growth inhibition rate, soybean; assay type: in vivo, Glycine max Merr.; conditions: 250 g/ha active ingredient, observed on 19th to 24th day
Method in brief: as §2

[5] = tested on: soybean (Glycine max Merr.); test: Test Example 1: foliar treatment, growth inhibition rate, soybean; assay type: in vivo; conditions: 31 g/ha active ingredient, visually observed 17th to 23rd day after application
Method in brief: as §4

rice = test: Test Example 2: soil application on the day after sowing, growth inhibition rate, rice; assay type: in vivo, Oryza sativa L.; conditions: 250 g/ha active ingredient, observed on 19th to 24th day
Method in brief: as §2

[6] = tested on: greenfoxtail (Setaria viridis L.); test: Test Example 1: foliar treatment, growth inhibition rate, greenfoxtail; assay type: in vivo; conditions: 31 g/ha active ingredient, visually observed 17th to 23rd day after application
Method in brief: as §1

corn (Zea mays L.) = test: Test Example 1: foliar treatment, growth inhibition rate, corn; assay type: in vivo; conditions: 31 g/ha active ingredient, visually observed 17th to 23rd day after application
Method in brief: as §1

[7] = tested on: barnyardgrass (Echinochloa crus-galli L.); test: Test Example 1: foliar treatment, growth inhibition rate, barnyardgrass; assay type: in vivo; conditions: 31 g/ha active ingredient, visually observed 17th to 23rd day after application
Method in brief: as §3

Compound	Growth inhibition rate (%) Wheat (wheat (Triticum spp.))	Growth inhibition rate (%) Prickly sida (prickly sida)	Growth inhibition rate (%) Wheat (wheat)	Growth inhibition rate (%) Velvetleaf [1]	Growth inhibition rate (%) Crabgrass (crabgrass)	Growth inhibition rate (%) redroot pigweed [2]	Growth inhibition rate (%) Greenfoxtail (greenfoxtail)	Growth inhibition rate (%) Prickly sida [3]	Growth inhibition rate (%) redroot pigweed (redroot pigweed)	Growth inhibition rate (%) Corn (corn)	Growth inhibition rate (%) Velvetleaf (velvetleaf)	Growth inhibition rate (%) Barnyardgrass (barnyardgrass)	Growth inhibition rate (%) Crabgrass [4]	Growth inhibition rate (%) Rice (rice (Oryza sativa L.))	Growth inhibition rate (%) Soybean (soybean)	Growth inhibition rate (%) Soybean [5]	Growth inhibition rate (%) Rice (rice)	Growth inhibition rate (%) Greenfoxtail [6]	Growth inhibition rate (%) Corn (corn (Zea mays L.))	Growth inhibition rate (%) Barnyardgrass [7]
CCCOc1c(S(C)(=O)=O)ccc(C(=O)c2cnn(C)c2OC(=O)SCC)c1C [compound 66]	10%	90%	0%	95%	90%	95%	40%	75%	95%	0%	40%	80%	98%	60%	0%	98%	90%	100%	0%	95%
CCCSC(=O)Oc1c(C(=O)c2ccc(S(C)(=O)=O)c(C(=O)OC)c2C)cnn1CC [compound 85]	60%	100%	0%	98%	100%	95%	100%	98%	98%	10%	100%	100%	98%	95%	50%	98%	100%	100%	10%	98%
CCSC(=O)Oc1c(C(=O)c2ccc(S(C)(=O)=O)c(OCC3CCCO3)c2C)cnn1C (centres unmarked) [compound 211]	0%	70%	0%	90%	98%	90%	60%	20%	100%	0%	40%	60%	70%	50%	0%	98%	50%	70%	20%	70%
CCOC(=O)c1c(S(C)(=O)=O)ccc(C(=O)c2cnn(CC)c2OC(=O)SCC)c1Cl [compound 59]	10%	98%	10%	75%	100%	80%	100%	80%	100%	0%	100%	100%	80%	50%	10%	70%	80%	70%	0%	90%
